Reference: PubChem BioAssay (NCI)
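GI50 marks 50% less growth. TGI denotes the concentration required for complete inhibition of growth.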

Columns and labels:
Assay in all cases: NCI anticancer screen, dose series, 384-well format
[1] = test system: 786-0 renal
[2] = test system: A498 renal
[3] = test system: A549 NSCLC
[4] = test system: ACHN renal
[5] = test system: BT-549 breast
[6] = test system: CAKI-1 renal
[7] = test system: CCRF-CEM leukemia
[8] = test system: COLO 205 colon
[9] = test system: DU-145 prostate
[10] = test system: HCC-2998 colon
[11] = test system: HCT-116 colon
[12] = test system: HCT-15 colon
[13] = test system: HL-60(TB) leukemia
[14] = test system: HOP-62 NSCLC
[15] = test system: HOP-92 NSCLC
[16] = test system: HT29 colon
[17] = test system: IGROV1 ovarian
[18] = test system: K-562 leukemia
[19] = test system: KM12 colon
[20] = test system: LOX IMVI melanoma
[21] = test system: M14 melanoma
[22] = test system: MALME-3M melanoma
[23] = test system: MCF7 breast
[24] = test system: MDA-MB-231 breast
[25] = test system: MDA-MB-435 melanoma
[26] = test system: MDA-MB-468 breast
[27] = test system: MOLT-4 leukemia
[28] = test system: NCI-H226 lung
[29] = test system: NCI-H23 lung
[30] = test system: NCI-H322M lung
[31] = test system: NCI-H460 NSCLC
[32] = test system: NCI-H522 lung
[33] = test system: NCI/ADR-RES ovarian
[34] = test system: OVCAR-3 ovarian
[35] = test system: OVCAR-4 ovarian
[36] = test system: OVCAR-5 ovarian
[37] = test system: OVCAR-8 ovarian
[38] = test system: PC-3 prostate
[39] = test system: RPMI-8226 leukemia
[40] = test system: RXF 393 renal
[41] = test system: SF-268 CNS
[42] = test system: SF-295 CNS
[43] = test system: SF-539 CNS
[44] = test system: SK-MEL-2 melanoma
[45] = test system: SK-MEL-28 melanoma
[46] = test system: SK-MEL-5 melanoma
[47] = test system: SK-OV-3 ovarian
[48] = test system: SN12C renal
[49] = test system: SNB-19 CNS
[50] = test system: SR leukemia
[51] = test system: SW-620 colon
[52] = test system: T-47D breast
[53] = test system: TK-10 renal
[54] = test system: U251 glioblastoma
[55] = test system: UACC-257 melanoma
[56] = test system: UACC-62 melanoma
[57] = test system: UO-31 renal

## COCCNCc1ccc(-c2cc3nccc(Oc4ccc(NC(=S)NC(=O)Cc5ccc(F)cc5)cc4F)c3s2)nc1
[1]
  GI50: 1.48 µM
  TGI: 2.82 µM
[2]
  GI50: 1.56 µM
  TGI: 2.9 µM
[3]
  GI50: 1.68 µM
  TGI: 3.07 µM
[4]
  GI50: 1.72 µM
  TGI: 3.11 µM
[5]
  GI50: 1.6 µM
  TGI: 2.95 µM
[6]
  GI50: 1.52 µM
  TGI: 2.86 µM
[7]
  GI50: 0.868 µM
  TGI: 2.07 µM
[8]
  GI50: 1.61 µM
  TGI: 2.98 µM
[9]
  GI50: 1.86 µM
  TGI: 3.29 µM
[10]
  GI50: 1.85 µM
  TGI: 3.26 µM
[11]
  GI50: 1.28 µM
  TGI: 2.56 µM
[12]
  GI50: 1.71 µM
  TGI: 3.11 µM
[13]
  GI50: 0.621 µM
  TGI: 1.75 µM
[14]
  GI50: 1.93 µM
  TGI: 3.35 µM
[15]
  GI50: 1.26 µM
  TGI: 2.52 µM
[16]
  GI50: 1.16 µM
  TGI: 2.41 µM
[17]
  GI50: 1.64 µM
  TGI: 3.54 µM
[18]
  GI50: 0.177 µM
  TGI: 0.343 µM
[19]
  GI50: 0.385 µM
  TGI: 1.44 µM
[20]
  GI50: 2.02 µM
  TGI: 3.46 µM
[21]
  GI50: 1.58 µM
  TGI: 2.94 µM
[22]
  GI50: 1.54 µM
  TGI: 2.89 µM
[23]
  GI50: 1.48 µM
  TGI: 2.81 µM
[24]
  GI50: 1.44 µM
  TGI: 2.76 µM
[25]
  GI50: 1.86 µM
  TGI: 3.27 µM
[26]
  GI50: 1.85 µM
  TGI: 3.25 µM
[27]
  GI50: 0.582 µM
  TGI: 1.78 µM
[28]
  GI50: 1.95 µM
  TGI: 3.62 µM
[29]
  GI50: 0.486 µM
  TGI: 2.2 µM
[30]
  GI50: 1.7 µM
  TGI: 3.09 µM
[31]
  GI50: 1.42 µM
  TGI: 2.75 µM
[32]
  GI50: 1.67 µM
  TGI: 3.03 µM
[33]
  GI50: 1.58 µM
  TGI: 2.93 µM
[34]
  GI50: 1.89 µM
  TGI: 3.31 µM
[35]
  GI50: 1.09 µM
  TGI: 2.3 µM
[36]
  GI50: 1.94 µM
  TGI: 3.38 µM
[37]
  GI50: 1.42 µM
  TGI: 2.74 µM
[38]
  GI50: 1.81 µM
  TGI: 3.21 µM
[39]
  GI50: 0.614 µM
  TGI: 1.82 µM
[40]
  GI50: 1.59 µM
  TGI: 2.94 µM
[41]
  GI50: 1.57 µM
  TGI: 2.92 µM
[42]
  GI50: 0.875 µM
  TGI: 2.11 µM
[43]
  GI50: 0.969 µM
  TGI: 2.15 µM
[44]
  GI50: 1.96 µM
  TGI: 3.38 µM
[45]
  GI50: 1.5 µM
  TGI: 2.83 µM
[46]
  GI50: 1.26 µM
  TGI: 2.52 µM
[47]
  GI50: 1.55 µM
  TGI: 2.89 µM
[48]
  GI50: 1.14 µM
  TGI: 2.35 µM
[49]
  GI50: 1.78 µM
  TGI: 3.19 µM
[50]
  GI50: 0.187 µM
  TGI: 0.33 µM
[51]
  GI50: 1.55 µM
  TGI: 2.92 µM
[52]
  GI50: 1.48 µM
  TGI: 2.81 µM
[53]
  GI50: 1.78 µM
  TGI: 3.17 µM
[54]
  GI50: 1.3 µM
  TGI: 2.58 µM
[55]
  GI50: 1.09 µM
  TGI: 2.29 µM
[56]
  GI50: 1.52 µM
  TGI: 2.86 µM
[57]
  GI50: 1.6 µM
  TGI: 2.95 µM
